Measured values from patent US20130190375A1, “CARBOXAMIDES” (BAYER CROPSCIENCE AG, priority 2005, published 2013).

The compounds below were run on Phakopsora pachyrhizi (assay: Soya bean rust control test/spray application). Details: active compound application rate 100 ppm; sprayed one day before inoculation; evaluated 14 days after inoculation.
Assay type: in vivo, Phakopsora pachyrhizi on soya beans (cultivar: Enrei)
Description: 5 parts by weight of carboxamide of the formula (I), 142.4 parts by weight of acetone and 7.5 parts by weight of emulsifier (polyoxyethylene alkylphenyl ether) are mixed and adjusted with water to the desired concentration.
Soya beans (cultivar: Enrei) were cultivated in plastic containers having a diameter of 7.5 cm. In each case 3 containers, 6 ml of the test substance (preparation as described above) were sprayed onto the seedlings which had reached the 2.3 leaf stage. One day after spraying, the leaves were inoculated with an urediniospore suspension (1×10^5 urediniospores/ml) of Phakopsora pachyrhizi. 14 days after the inoculation, the degree of infection for each container was evaluated and the efficacy was calculated. The phytotoxicity was also monitored.
`CC(C)CC(C)c1ccccc1NC(=O)c1c(C(F)(F)F)nn(C)c1F` (stereo not shown) [(5), 3-(trifluoromethyl)-N-[2-(1,3-dimethylbutyl)phenyl]-5-fluoro-1-methyl-1H-pyrazole-4-carboxamide] was tested, and the Efficacy in % was 80%. In the case of `Cc1nn(C)c(F)c1C(=O)Nc1ccccc1CCC(C)(C)C` [(36), N-[2-(3,3-dimethylbutyl)phenyl]-5-fluoro-1,3-dimethyl-1H-pyrazole-4-carboxamide], the Efficacy in % was 100%. For “3-(difluoromethyl)-N-[2-(1,3-dimethylbutyl)-4-fluorophenyl]-1-methyl-1H-pyrazole-4-carboxamide [(38)]”, the Efficacy in % was 95%. Work on `Cn1cc(C(=O)Nc2ccccc2CCC(C)(C)C)c(C(F)F)n1` [(35), 3-(difluoromethyl)-N-[2-(3,3-dimethylbutyl)phenyl]-1-methyl-1H-pyrazole-4-carboxamide] yielded an Efficacy in % of 100%. In the case of `Cc1nc(C(F)F)c(C(=O)Nc2ccsc2CC[Si](C)(C)C)s1` [(39), 4-(difluoromethyl)-2-methyl-N-{2-[2-(trimethylsilyl)ethyl]-3-thienyl}-1,3-thiazole-5-carboxamide], the Efficacy in % was 80%. Work on `Cn1cc(C(=O)Nc2ccc(F)cc2-c2ccc(Cl)c(Cl)c2)c(C(F)F)n1` [(21), N-(3′,4′-dichloro-5-fluoro-1,1′-biphenyl-2-yl)-3-(difluoromethyl)-1-methyl-1H-pyrazole-4-carboxamide] yielded an Efficacy in % of 50%. In the case of “N-[3′-fluoro-4′-(trifluoromethyl)biphenyl-2-yl]-3-iodo-1-methyl-1H-pyrazole-4-carboxamide [(37)]”, the Efficacy in % was 50%. `Cc1nn(C)c(F)c1C(=O)Nc1ccccc1C(C)CC(C)C` (stereo not shown) [(2), N-[2-(1,3-dimethylbutyl)phenyl]-5-fluoro-1,3-dimethyl-1H-pyrazole-4-carboxamide] was tested, and the Efficacy in % was 100%. `Cn1cc(C(=O)Nc2ccccc2-c2ccc(Cl)cc2)c(I)n1` [(33), N-(4′-chlorobiphenyl-2-yl)-3-iodo-1-methyl-1H-pyrazole-4-carboxamide] gave an Efficacy in % of 50%.

Same assay, conditions: active compound application rate 250 ppm; sprayed one day before inoculation; evaluated 14 days after inoculation
`Cn1cc(C(=O)Nc2ccc(F)cc2-c2ccc(Cl)c(Cl)c2)c(C(F)F)n1` [(21), N-(3′,4′-dichloro-5-fluoro-1,1′-biphenyl-2-yl)-3-(difluoromethyl)-1-methyl-1H-pyrazole-4-carboxamide] gave an Efficacy in % of 90%.
